According to ChEMBL document CHEMBL1125940 (Bioorg Med Chem Lett, 1991):
Positions of bridges follow the written chain, without caps; N, C: chain ends. Non-standard residues stand in square brackets, D forms with d. Residues, ends and D or L forms follow the SMILES beside them. Nle = CCCC[C@H](N)C(=O)O

Columns and labels:
[1] = target: T1, Endothelin-1 receptor (Rattus norvegicus, UniProt P26684); assay: Binding affinity towards Endothelin A receptor in A10 rat thoracic aorta smooth muscle cells using [125I]ET1 as radioligand (Exp 1)
T1 sequence (P26684 whole entry): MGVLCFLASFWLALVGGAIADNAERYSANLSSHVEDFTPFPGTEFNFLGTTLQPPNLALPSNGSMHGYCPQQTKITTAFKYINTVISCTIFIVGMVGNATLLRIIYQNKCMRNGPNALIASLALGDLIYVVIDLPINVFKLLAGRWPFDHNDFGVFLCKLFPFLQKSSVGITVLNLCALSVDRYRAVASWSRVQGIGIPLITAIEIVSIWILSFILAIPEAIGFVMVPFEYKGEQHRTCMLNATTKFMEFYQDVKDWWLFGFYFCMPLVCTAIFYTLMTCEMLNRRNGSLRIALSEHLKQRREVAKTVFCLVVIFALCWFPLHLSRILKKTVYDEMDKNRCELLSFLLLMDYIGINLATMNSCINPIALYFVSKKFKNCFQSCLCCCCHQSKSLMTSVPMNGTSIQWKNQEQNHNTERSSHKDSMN

[2] = target: T1, Endothelin-1 receptor; assay: Binding affinity towards Endothelin A receptor in A10 rat thoracic aorta smooth muscle cells using [125I]ET1 as radioligand (Exp 2)
[3] = target: T1, Endothelin-1 receptor; assay: Binding affinity towards Endothelin A receptor in A10 rat thoracic aorta smooth muscle cells using [125I]ET1 as radioligand
[4] = species on record: Oryctolagus cuniculus; assay: Effective concentration required for stimulation of vascular contraction tested in vitro using carotid arteries of New Zealand white rabbits; format: functional

Compound | Kd [1] [nM] | Kd [2] [nM] | Kd [3] [nM] | EC50 [4] [nM]
CC[C@H](C)[C@H](NC(=O)[C@H](CC(=O)O)NC(=O)[C@H](C)NC(=O)[C@H](Cc1c[nH]cn1)NC(=O)[C@@H]1CSSC[C@H](N)C(=O)N[C@@H](CO)C(=O)N[C@H]2CSSC[C@H](NC(=O)[C@H](CCC(=O)O)NC(=O)[C@H](CCCCN)NC(=O)[C@H](CC(=O)O)NC(=O)[C@H](CCSC)NC(=O)[C@H](CC(C)C)NC(=O)[C@H](CO)NC(=O)[C@H](CO)NC2=O)C(=O)N[C@@H](C(C)C)C(=O)N[C@@H](Cc2ccc(O)cc2)C(=O)N[C@@H](Cc2ccccc2)C(=O)N1)C(=O)N[C@H](C(=O)N[C@@H](Cc1c[nH]c2ccccc12)C(=O)O)[C@@H](C)CC (H-CSCSSLMDKECVYFCHADIIW-OH; disulfide 1-15, 3-11) | 6.6 | 1910 |  | 
CC[C@H](C)[C@H](NC(=O)[C@H](CC(=O)O)NC(=O)[C@H](CC(C)C)NC(=O)[C@H](C)NC(=O)[C@@H]1CSSC[C@H](N)C(=O)N[C@@H](CO)C(=O)N[C@H]2CSSC[C@H](NC(=O)[C@H](CCC(=O)O)NC(=O)[C@H](CCCCN)NC(=O)[C@H](CC(=O)O)NC(=O)[C@H](CCSC)NC(=O)[C@H](CC(C)C)NC(=O)[C@H](CO)NC(=O)[C@H](CO)NC2=O)C(=O)N[C@@H](C(C)C)C(=O)N[C@@H](Cc2ccc(O)cc2)C(=O)N[C@@H](Cc2ccccc2)C(=O)N1)C(=O)N[C@H](C(=O)N[C@@H](Cc1c[nH]c2ccccc12)C(=O)O)[C@@H](C)CC (H-CSCSSLMDKECVYFCALDIIW-OH; disulfide 1-15, 3-11) |  |  | 51.9 | 31
CC[C@H](C)[C@H](NC(=O)[C@H](C)NC(=O)[C@H](CC(=O)O)NC(=O)[C@H](CC(C)C)NC(=O)[C@H](Cc1cnc[nH]1)NC(=O)[C@@H]1CSSC[C@H](N)C(=O)N[C@@H](CO)C(=O)N[C@H]2CSSC[C@H](NC(=O)[C@H](CCC(=O)O)NC(=O)[C@H](CCCCN)NC(=O)[C@H](CC(=O)O)NC(=O)[C@H](CCSC)NC(=O)[C@H](CC(C)C)NC(=O)[C@H](CO)NC(=O)[C@H](CO)NC2=O)C(=O)N[C@@H](C(C)C)C(=O)N[C@@H](Cc2ccc(O)cc2)C(=O)N[C@@H](Cc2ccccc2)C(=O)N1)C(=O)N[C@@H](Cc1c[nH]c2ccccc12)C(=O)O (H-CSCSSLMDKECVYFCHLDAIW-OH; disulfide 1-15, 3-11) | 96 | 3120 |  | 
CC[C@H](C)[C@H](NC(=O)[C@H](CC(=O)O)NC(=O)[C@H](CC(C)C)NC(=O)[C@H](Cc1cnc[nH]1)NC(=O)[C@@H]1CSSC[C@H](N)C(=O)N[C@@H](CO)C(=O)N[C@H]2CSSC[C@H](NC(=O)[C@H](CCC(=O)O)NC(=O)[C@H](CCCCN)NC(=O)[C@H](CC(=O)O)NC(=O)[C@H](CCSC)NC(=O)[C@H](CC(C)C)NC(=O)[C@H](CO)NC(=O)[C@H](CO)NC2=O)C(=O)N[C@@H](C)C(=O)N[C@@H](Cc2ccc(O)cc2)C(=O)N[C@@H](Cc2ccccc2)C(=O)N1)C(=O)N[C@H](C(=O)N[C@@H](Cc1c[nH]c2ccccc12)C(=O)O)[C@@H](C)CC (H-CSCSSLMDKECAYFCHLDIIW-OH; disulfide 1-15, 3-11) | 31 | 1390 |  | 
CCCC[C@@H]1NC(=O)[C@H](CC(C)C)NC(=O)[C@H](CO)NC(=O)[C@H](CO)NC(=O)[C@H](C)NC(=O)[C@H](CO)NC(=O)[C@@H](N)CSSC[C@@H](C(=O)N[C@@H](Cc2cnc[nH]2)C(=O)N[C@@H](CC(C)C)C(=O)N[C@@H](CC(=O)O)C(=O)N[C@H](C(=O)N[C@H](C(=O)N[C@@H](Cc2c[nH]c3ccccc23)C(=O)O)[C@@H](C)CC)[C@@H](C)CC)NC(=O)[C@H](Cc2ccccc2)NC(=O)[C@H](Cc2ccc(O)cc2)NC(=O)[C@H](C(C)C)NC(=O)[C@H](C)NC(=O)[C@H](CCC(=O)O)NC(=O)[C@H](CCCCN)NC(=O)[C@H](CC(=O)O)NC1=O (H-CSASSL[Nle]DKEAVYFCHLDIIW-OH; disulfide 1-15) | 0.35 | 16.6 |  | 
CC[C@H](C)[C@H](NC(=O)[C@H](C)NC(=O)[C@H](CC(C)C)NC(=O)[C@H](Cc1cnc[nH]1)NC(=O)[C@@H]1CSSC[C@H](N)C(=O)N[C@@H](CO)C(=O)N[C@H]2CSSC[C@H](NC(=O)[C@H](CCC(=O)O)NC(=O)[C@H](CCCCN)NC(=O)[C@H](CC(=O)O)NC(=O)[C@H](CCSC)NC(=O)[C@H](CC(C)C)NC(=O)[C@H](CO)NC(=O)[C@H](CO)NC2=O)C(=O)N[C@@H](C(C)C)C(=O)N[C@@H](Cc2ccc(O)cc2)C(=O)N[C@@H](Cc2ccccc2)C(=O)N1)C(=O)N[C@H](C(=O)N[C@@H](Cc1c[nH]c2ccccc12)C(=O)O)[C@@H](C)CC (H-CSCSSLMDKECVYFCHLAIIW-OH; disulfide 1-15, 3-11) | 0.7 | 80 |  | 
CC[C@H](C)[C@H](NC(=O)[C@H](CC(=O)O)NC(=O)[C@H](CC(C)C)NC(=O)[C@H](Cc1c[nH]cn1)NC(=O)[C@@H]1CSSC[C@H](N)C(=O)N[C@@H](CO)C(=O)N[C@H]2CSSC[C@H](NC(=O)[C@H](CCC(=O)O)NC(=O)[C@H](CCCCN)NC(=O)[C@H](CC(=O)O)NC(=O)[C@H](CCSC)NC(=O)[C@H](CC(C)C)NC(=O)[C@H](CO)NC(=O)[C@H](CO)NC2=O)C(=O)N[C@@H](C(C)C)C(=O)N[C@@H](Cc2ccc(O)cc2)C(=O)N[C@@H](Cc2ccccc2)C(=O)N1)C(=O)N[C@H](C(=O)N[C@@H](Cc1c[nH]c2ccccc12)C(=O)O)[C@@H](C)CC [ENDOTHELIN] |  |  |  | 0.94

Continued, values first:

Kd [1] [nM] | Kd [2] [nM] | Kd [3] [nM] | EC50 [4] [nM] | Compound
 |  |  | 182 | CC[C@H](C)[C@H](NC(=O)[C@H](C)NC(=O)[C@H](CC(=O)O)NC(=O)[C@H](CC(C)C)NC(=O)[C@H](Cc1c[nH]cn1)NC(=O)[C@@H]1CSSC[C@H](N)C(=O)N[C@@H](CO)C(=O)N[C@H]2CSSC[C@H](NC(=O)[C@H](CCC(=O)O)NC(=O)[C@H](CCCCN)NC(=O)[C@H](CC(=O)O)NC(=O)[C@H](CCSC)NC(=O)[C@H](CC(C)C)NC(=O)[C@H](CO)NC(=O)[C@H](CO)NC2=O)C(=O)N[C@@H](C(C)C)C(=O)N[C@@H](Cc2ccc(O)cc2)C(=O)N[C@@H](Cc2ccccc2)C(=O)N1)C(=O)N[C@@H](Cc1c[nH]c2ccccc12)C(=O)O (H-CSCSSLMDKECVYFCHLDAIW-OH; disulfide 1-15, 3-11)
 |  |  | 3.3 | CCCC[C@@H]1NC(=O)[C@H](CC(C)C)NC(=O)[C@H](CO)NC(=O)[C@H](CO)NC(=O)[C@H](C)NC(=O)[C@H](CO)NC(=O)[C@@H](N)CSSC[C@@H](C(=O)N[C@@H](Cc2c[nH]cn2)C(=O)N[C@@H](CC(C)C)C(=O)N[C@@H](CC(=O)O)C(=O)N[C@H](C(=O)N[C@H](C(=O)N[C@@H](Cc2c[nH]c3ccccc23)C(=O)O)[C@@H](C)CC)[C@@H](C)CC)NC(=O)[C@H](Cc2ccccc2)NC(=O)[C@H](Cc2ccc(O)cc2)NC(=O)[C@H](C(C)C)NC(=O)[C@H](C)NC(=O)[C@H](CCC(=O)O)NC(=O)[C@H](CCCCN)NC(=O)[C@H](CC(=O)O)NC1=O (H-CSASSL[Nle]DKEAVYFCHLDIIW-OH; disulfide 1-15)
 |  |  | 36 | CC[C@H](C)[C@H](NC(=O)[C@H](CC(=O)O)NC(=O)[C@H](CC(C)C)NC(=O)[C@H](Cc1c[nH]cn1)NC(=O)[C@@H]1CSSC[C@H](N)C(=O)N[C@@H](CO)C(=O)N[C@H]2CSSC[C@H](NC(=O)[C@H](CCC(=O)O)NC(=O)[C@H](CCCCN)NC(=O)[C@H](CC(=O)O)NC(=O)[C@H](C)NC(=O)[C@H](C)NC(=O)[C@H](C)NC(=O)[C@H](C)NC2=O)C(=O)N[C@@H](C(C)C)C(=O)N[C@@H](Cc2ccc(O)cc2)C(=O)N[C@@H](Cc2ccccc2)C(=O)N1)C(=O)N[C@H](C(=O)N[C@@H](Cc1c[nH]c2ccccc12)C(=O)O)[C@@H](C)CC (H-CSCAAAADKECVYFCHLDIIW-OH; disulfide 1-15, 3-11)
9.6 | 409 |  |  | CC[C@H](C)[C@H](NC(=O)[C@H](CC(=O)O)NC(=O)[C@H](CC(C)C)NC(=O)[C@H](Cc1cnc[nH]1)NC(=O)[C@@H]1CSSC[C@H](N)C(=O)N[C@@H](C)C(=O)N[C@H]2CSSC[C@H](NC(=O)[C@H](CCC(=O)O)NC(=O)[C@H](CCCCN)NC(=O)[C@H](CC(=O)O)NC(=O)[C@H](CCSC)NC(=O)[C@H](CC(C)C)NC(=O)[C@H](CO)NC(=O)[C@H](CO)NC2=O)C(=O)N[C@@H](C(C)C)C(=O)N[C@@H](Cc2ccc(O)cc2)C(=O)N[C@@H](Cc2ccccc2)C(=O)N1)C(=O)N[C@H](C(=O)N[C@@H](Cc1c[nH]c2ccccc12)C(=O)O)[C@@H](C)CC (H-CACSSLMDKECVYFCHLDIIW-OH; disulfide 1-15, 3-11)
